From PMC5469273, “Discovery of Novel Small-Molecule Inhibitors of LIM Domain Kinase for Inhibiting HIV-1” (Journal of Virology, 2017)

Assays:
[1] = system: HIV-1(NL4-3); assay type: cell-based; settings: for Infectivity (percentage of GFP+ cells): 100 μM, pretreated 1 h, HIV-1(NL4-3) 3 h, washed, viable cells only, paired DMSO controls 1.76-3.37%; for X4 HIV infection in screening: at nontoxic dosages, Fig. 1C and 2
[2] = target: LIMK1 (Homo sapiens, UniProt P53667); test: LIMK1 biochemical assay, 10-dose IC50; set-up: purified from insect cells; His; purchased Reaction Biology Corporation, Malvern, PA; host or cells: insect cells (coexpressed with ROCK1); settings: purified LIMK1; 10 μM ATP, 1 μM cofilin; ≥2 in vitro kinase assays; read-out: LIMK1 Biochemical Inhibition IC50
Chain of LIMK1 (P53667 285-638): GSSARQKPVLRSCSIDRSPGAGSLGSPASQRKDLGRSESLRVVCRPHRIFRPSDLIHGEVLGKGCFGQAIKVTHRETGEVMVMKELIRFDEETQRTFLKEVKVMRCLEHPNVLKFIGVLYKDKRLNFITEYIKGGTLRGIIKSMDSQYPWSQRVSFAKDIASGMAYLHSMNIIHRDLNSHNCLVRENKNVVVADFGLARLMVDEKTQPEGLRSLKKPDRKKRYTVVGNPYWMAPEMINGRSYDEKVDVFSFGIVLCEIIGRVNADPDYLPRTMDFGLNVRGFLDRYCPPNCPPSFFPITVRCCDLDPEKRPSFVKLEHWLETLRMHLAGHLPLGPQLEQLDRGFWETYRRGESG
Source text: We selected R10015 from the potential LIMK inhibitors for further detailed mechanistic studies. The synthesis, purification, and biochemical characterization of R10015 are described in Materials and Methods below and shown in Fig. 3. We performed a cell-free assay to measure R10015 inhibition of the LIM domain kinase using purified human LIMK1 and its substrate, cofilin. […] We also performed profiling of R10015 against a panel of 62 kinases (Table 2).
Biochemical LIMK1 assays for all inhibitors were carried out by Reaction Biology Corporation, Malvern, PA, and followed the protocols described on its website. […] Reactions were carried out at 10 μM ATP, 1 μM substrate (cofilin), and 50 nM LIMK1 (final concentrations). […] The reagents were as follows: base reaction buffer, 20 mM HEPES (pH 7.5), 10 mM MgCl2, 1 mM EGTA, 0.02% Brij 35, 0.02 mg/ml bovine serum albumin (BSA), 0.1 mM Na3VO4, 2 mM dithiothreitol (DTT), 1% DMSO. No additional cofactors were added to the reaction mixture. The reaction procedures were as follows. (i) The indicated substrate was prepared in freshly made base reaction buffer. (ii) Any required cofactors were delivered to the substrate solution described above. (iii) The indicated kinase was delivered into the substrate solution and gently mixed. (iv) The compounds in DMSO were delivered into the kinase reaction mixture. (v) [^33P]ATP (final specific activity, 0.01 μCi/μl) was delivered into the reaction mixture to initiate the reaction. […] (viii) The filters were washed extensively in 0.1% phosphoric acid.

[3] = in vitro; settings: human
[4] = oral gavage 20 mg/kg daily, 7 days

Cc1c[nH]c2ncnc(-c3ccc(-c4nc5ccc(C(=O)NC6CCCC6)cc5[nH]4)c(F)c3)c12 [Compound R8584]
Infectivity (percentage of GFP+ cells) ([1]; 48 h): 0.65%
X4 HIV infection in screening [1]: blocked
IC50 [2]: 50 ± 7 nM
viability at 100 µM [3]: 93.7%

CCOC(=O)c1ccc2nc(N3CCN(c4ncnc5[nH]cc(Cl)c45)[C@@H](C)C3)[nH]c2c1 [Compound R10659]
Infectivity (percentage of GFP+ cells) ([1]; 48 h): 1.30%
X4 HIV infection in screening [1]: blocked
viability at 100 µM [3]: 89.8%

Cc1cc(C#N)cc(C)c1Oc1nc(Nc2ccc(C#N)cc2)nc(N)c1Br [Etravirine, etravirine, reference compound]
HIV-dependent GFP expression (GFP+ cells) ([1]; etravirine 100 nM, HIV(NL4-3), 48 h, Fig. 1B): 0.01%

Cc1c[nH]c2ncnc(-c3ccc(NC(=O)N(CCO)c4ccccc4)cc3)c12 [Compound R7826]
Infectivity (percentage of GFP+ cells) ([1]; 48 h): 1.02%
X4 HIV infection in screening [1]: blocked
body weight over a week compared to PBS control [4]: gained weight
viability at 100 µM [3]: 96.2%

Cc1c[nH]c2ncnc(N3CCC(c4nc5cc(C#N)ccc5[nH]4)CC3)c12 [Compound R8212]
Infectivity (percentage of GFP+ cells) ([1]; 48 h): 2.22%
X4 HIV infection in screening [1]: blocked
IC50 [2]: 44 ± 6 nM
viability at 100 µM [3]: 93.3%

CC(C)NC(=O)c1ccc2[nH]c(N3CCN(c4ncnc5[nH]cc(Cl)c45)C[C@@H]3C)nc2c1 [Compound R10543]
Infectivity (percentage of GFP+ cells) ([1]; 48 h): 0.75%
X4 HIV infection in screening [1]: blocked
IC50 [2]: 5 ± 2 nM
viability at 100 µM [3]: 90.1%

CC1(c2nc3ccc(C(=O)NC4CCC4)cc3[nH]2)CCN(c2ncnc3[nH]ccc23)CC1 [Compound R8482]
Infectivity (percentage of GFP+ cells) ([1]; 48 h): 1.10%
X4 HIV infection in screening [1]: blocked
IC50 [2]: 41 ± 4 nM
viability at 100 µM [3]: 93.4%
